Targets include Histamine H1 receptor (Homo sapiens, UniProt P35367); Motilin receptor (Homo sapiens, UniProt O43193); Melanocortin receptor 3 (Homo sapiens, UniProt P41968).
Experiment [1] deals with cGMP-inhibited 3',5'-cyclic phosphodiesterase 3A (Homo sapiens, UniProt Q14432). In kind it is functional.
The target in experiment [2] is T1, 5-hydroxytryptamine receptor 1A (Homo sapiens, UniProt P08908).
T1 sequence (P08908 whole entry): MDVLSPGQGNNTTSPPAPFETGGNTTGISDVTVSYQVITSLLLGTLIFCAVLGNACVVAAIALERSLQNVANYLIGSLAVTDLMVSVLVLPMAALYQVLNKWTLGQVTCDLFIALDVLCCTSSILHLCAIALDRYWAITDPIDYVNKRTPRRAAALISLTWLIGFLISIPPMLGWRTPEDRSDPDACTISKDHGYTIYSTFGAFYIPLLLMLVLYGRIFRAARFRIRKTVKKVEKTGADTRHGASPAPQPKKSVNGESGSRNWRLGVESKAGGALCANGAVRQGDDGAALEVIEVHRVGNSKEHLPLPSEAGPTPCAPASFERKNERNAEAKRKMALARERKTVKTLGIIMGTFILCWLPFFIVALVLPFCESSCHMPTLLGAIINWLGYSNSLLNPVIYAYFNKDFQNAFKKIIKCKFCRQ
The format is functional, cell-based.

Experiment [3] has as its target T2, 5-hydroxytryptamine receptor 2C (Homo sapiens, UniProt P28335).
T2 sequence (P28335 whole entry): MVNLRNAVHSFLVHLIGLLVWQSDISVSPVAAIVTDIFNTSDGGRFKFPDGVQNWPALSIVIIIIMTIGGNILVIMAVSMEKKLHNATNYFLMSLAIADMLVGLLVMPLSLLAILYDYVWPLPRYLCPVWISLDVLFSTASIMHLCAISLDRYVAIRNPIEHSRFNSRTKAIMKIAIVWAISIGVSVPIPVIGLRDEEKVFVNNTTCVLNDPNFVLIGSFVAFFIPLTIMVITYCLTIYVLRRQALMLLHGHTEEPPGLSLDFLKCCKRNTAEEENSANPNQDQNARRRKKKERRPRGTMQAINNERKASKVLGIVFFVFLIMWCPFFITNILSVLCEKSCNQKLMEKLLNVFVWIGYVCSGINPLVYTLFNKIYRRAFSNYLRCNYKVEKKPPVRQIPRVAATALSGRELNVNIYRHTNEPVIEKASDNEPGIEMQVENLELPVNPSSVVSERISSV

Experiment [4] addresses T3, Alpha-2B adrenergic receptor (Homo sapiens, UniProt P18089).
T3 sequence (P18089 whole entry): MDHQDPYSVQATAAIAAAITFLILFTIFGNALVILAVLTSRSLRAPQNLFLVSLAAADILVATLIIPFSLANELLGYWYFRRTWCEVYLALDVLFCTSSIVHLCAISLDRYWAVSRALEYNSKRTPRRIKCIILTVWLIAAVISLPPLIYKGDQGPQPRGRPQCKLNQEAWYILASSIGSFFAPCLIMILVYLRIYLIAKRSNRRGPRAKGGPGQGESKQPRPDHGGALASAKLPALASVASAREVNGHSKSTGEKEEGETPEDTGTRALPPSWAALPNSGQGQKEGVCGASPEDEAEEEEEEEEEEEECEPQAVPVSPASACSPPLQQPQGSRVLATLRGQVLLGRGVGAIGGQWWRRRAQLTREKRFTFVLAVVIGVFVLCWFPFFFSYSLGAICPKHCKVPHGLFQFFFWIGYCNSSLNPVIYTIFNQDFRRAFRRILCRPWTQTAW

The target of experiment [5] is Kappa-type opioid receptor (Homo sapiens, UniProt P41145).
Experiment [6] concerns the target Gamma-aminobutyric acid receptor subunit alpha-1 (Rattus norvegicus, UniProt P62813). In kind it is functional.
Experiment [7] has as its target T4, Equilibrative nucleoside transporter 1 (Homo sapiens, UniProt Q99808).
T4 sequence (Q99808 whole entry): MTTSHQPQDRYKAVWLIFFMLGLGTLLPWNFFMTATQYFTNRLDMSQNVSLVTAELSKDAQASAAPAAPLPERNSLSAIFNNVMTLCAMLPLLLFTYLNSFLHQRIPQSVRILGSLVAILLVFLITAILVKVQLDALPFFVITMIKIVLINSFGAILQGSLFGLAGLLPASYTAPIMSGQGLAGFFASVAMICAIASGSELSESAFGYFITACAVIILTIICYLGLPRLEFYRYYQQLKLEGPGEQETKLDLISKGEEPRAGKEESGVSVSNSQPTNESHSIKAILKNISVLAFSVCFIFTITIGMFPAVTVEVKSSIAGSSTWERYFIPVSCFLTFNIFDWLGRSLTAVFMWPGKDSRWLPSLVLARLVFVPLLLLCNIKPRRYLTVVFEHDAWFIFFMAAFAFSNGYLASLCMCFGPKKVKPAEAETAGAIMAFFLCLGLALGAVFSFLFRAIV

The target of experiment [8] is Glutamate receptor ionotropic, NMDA 1 (Rattus norvegicus, UniProt P35439).
In experiment [9] the target is T5, Alpha-1A adrenergic receptor (Homo sapiens, UniProt P35348).
T5 sequence (P35348 whole entry): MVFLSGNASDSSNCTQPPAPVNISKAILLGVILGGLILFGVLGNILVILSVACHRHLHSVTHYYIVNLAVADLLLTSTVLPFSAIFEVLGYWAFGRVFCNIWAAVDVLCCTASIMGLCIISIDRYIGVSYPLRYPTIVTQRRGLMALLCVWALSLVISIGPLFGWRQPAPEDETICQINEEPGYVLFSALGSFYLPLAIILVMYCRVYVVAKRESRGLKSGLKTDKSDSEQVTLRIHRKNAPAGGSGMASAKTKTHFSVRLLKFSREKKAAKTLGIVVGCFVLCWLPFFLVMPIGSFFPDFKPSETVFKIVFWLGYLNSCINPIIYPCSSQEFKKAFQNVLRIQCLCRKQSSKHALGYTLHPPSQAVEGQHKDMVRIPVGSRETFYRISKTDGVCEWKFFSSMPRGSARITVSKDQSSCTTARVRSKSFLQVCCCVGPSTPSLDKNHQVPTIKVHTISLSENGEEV
The format is functional, cell-based.

Experiment [10] has as its target Sodium-dependent serotonin transporter (Homo sapiens, UniProt P31645).

AC50 data for twelve compounds are collected here from ChEMBL document CHEMBL5291721, “A preclinical secondary pharmacology resource illuminates target-adverse drug reaction associations of marketed drugs” (Nat Commun, 2023).
Note: assay procedure not described here.

Sequence of Gamma-aminobutyric acid receptor subunit alpha-1 (P62813 whole entry): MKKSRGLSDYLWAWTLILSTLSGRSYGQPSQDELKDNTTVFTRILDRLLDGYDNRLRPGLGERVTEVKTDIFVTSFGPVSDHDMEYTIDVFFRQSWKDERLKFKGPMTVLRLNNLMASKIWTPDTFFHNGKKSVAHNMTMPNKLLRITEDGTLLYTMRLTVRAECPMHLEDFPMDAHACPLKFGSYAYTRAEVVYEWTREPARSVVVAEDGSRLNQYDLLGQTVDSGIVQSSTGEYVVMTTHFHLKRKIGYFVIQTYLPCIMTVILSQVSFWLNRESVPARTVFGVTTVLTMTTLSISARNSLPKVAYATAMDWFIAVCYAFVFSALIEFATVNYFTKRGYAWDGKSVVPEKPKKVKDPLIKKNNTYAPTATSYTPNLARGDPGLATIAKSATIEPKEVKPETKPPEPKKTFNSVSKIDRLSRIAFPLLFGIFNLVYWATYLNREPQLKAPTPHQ
Sequence of Histamine H1 receptor (P35367 whole entry): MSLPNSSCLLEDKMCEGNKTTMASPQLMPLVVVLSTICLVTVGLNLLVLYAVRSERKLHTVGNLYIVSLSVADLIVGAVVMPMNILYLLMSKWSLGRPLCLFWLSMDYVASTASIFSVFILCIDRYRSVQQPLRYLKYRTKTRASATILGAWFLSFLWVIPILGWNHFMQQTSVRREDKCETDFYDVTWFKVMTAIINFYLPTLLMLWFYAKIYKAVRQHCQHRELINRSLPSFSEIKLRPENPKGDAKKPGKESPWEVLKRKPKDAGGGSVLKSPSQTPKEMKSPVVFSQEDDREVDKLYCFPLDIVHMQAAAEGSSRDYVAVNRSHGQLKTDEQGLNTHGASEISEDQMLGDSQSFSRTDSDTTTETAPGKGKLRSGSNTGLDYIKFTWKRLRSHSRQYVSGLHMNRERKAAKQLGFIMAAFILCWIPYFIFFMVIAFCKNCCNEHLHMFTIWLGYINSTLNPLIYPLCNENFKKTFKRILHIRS
Sequence of Motilin receptor (O43193 whole entry): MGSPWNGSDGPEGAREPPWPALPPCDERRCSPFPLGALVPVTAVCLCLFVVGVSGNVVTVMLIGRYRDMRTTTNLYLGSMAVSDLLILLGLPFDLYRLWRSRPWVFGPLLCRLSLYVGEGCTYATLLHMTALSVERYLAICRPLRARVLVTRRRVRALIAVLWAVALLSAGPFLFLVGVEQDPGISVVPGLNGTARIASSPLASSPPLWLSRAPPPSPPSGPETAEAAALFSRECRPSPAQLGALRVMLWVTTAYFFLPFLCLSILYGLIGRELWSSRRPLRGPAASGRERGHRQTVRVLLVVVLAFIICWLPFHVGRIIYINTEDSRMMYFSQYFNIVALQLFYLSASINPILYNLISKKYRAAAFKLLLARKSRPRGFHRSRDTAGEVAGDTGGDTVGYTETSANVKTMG
Sequence of cGMP-inhibited 3',5'-cyclic phosphodiesterase 3A (Q14432 whole entry): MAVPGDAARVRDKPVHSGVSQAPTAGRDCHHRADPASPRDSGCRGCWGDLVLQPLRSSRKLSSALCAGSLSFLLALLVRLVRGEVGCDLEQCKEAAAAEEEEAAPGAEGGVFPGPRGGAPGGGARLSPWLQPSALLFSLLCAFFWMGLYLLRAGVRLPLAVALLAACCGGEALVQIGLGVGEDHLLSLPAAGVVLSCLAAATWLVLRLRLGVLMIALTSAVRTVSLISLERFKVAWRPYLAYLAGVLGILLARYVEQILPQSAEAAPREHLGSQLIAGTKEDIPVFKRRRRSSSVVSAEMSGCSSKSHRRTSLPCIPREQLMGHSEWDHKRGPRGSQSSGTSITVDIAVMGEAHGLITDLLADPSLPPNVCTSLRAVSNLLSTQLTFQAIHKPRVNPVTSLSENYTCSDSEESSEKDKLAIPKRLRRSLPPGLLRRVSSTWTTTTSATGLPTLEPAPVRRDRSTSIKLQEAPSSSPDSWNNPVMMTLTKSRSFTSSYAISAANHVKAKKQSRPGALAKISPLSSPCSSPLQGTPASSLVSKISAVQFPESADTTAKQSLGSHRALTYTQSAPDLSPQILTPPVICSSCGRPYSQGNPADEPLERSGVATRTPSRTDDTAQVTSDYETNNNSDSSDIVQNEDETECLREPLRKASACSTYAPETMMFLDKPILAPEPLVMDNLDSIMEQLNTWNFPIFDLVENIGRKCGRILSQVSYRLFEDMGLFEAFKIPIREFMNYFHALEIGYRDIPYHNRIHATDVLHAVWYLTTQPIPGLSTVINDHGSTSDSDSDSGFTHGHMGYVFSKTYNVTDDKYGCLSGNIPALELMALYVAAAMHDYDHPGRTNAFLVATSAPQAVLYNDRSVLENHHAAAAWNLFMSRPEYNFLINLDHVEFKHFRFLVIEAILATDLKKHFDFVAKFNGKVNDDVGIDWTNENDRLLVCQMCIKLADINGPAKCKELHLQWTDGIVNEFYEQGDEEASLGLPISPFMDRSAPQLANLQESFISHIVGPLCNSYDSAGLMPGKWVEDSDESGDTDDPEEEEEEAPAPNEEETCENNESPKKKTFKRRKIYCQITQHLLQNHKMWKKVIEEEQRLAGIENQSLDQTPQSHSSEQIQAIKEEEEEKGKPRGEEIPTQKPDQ
Sequence of Melanocortin receptor 3 (P41968 whole entry): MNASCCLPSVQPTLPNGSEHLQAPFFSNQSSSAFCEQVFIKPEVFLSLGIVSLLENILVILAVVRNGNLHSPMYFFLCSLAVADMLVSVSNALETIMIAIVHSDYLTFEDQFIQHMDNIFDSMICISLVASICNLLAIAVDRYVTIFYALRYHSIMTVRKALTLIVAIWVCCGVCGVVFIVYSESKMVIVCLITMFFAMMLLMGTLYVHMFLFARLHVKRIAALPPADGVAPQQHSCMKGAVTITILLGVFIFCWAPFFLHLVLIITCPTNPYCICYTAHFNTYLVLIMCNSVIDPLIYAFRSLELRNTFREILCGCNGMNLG
Sequence of Kappa-type opioid receptor (P41145 whole entry): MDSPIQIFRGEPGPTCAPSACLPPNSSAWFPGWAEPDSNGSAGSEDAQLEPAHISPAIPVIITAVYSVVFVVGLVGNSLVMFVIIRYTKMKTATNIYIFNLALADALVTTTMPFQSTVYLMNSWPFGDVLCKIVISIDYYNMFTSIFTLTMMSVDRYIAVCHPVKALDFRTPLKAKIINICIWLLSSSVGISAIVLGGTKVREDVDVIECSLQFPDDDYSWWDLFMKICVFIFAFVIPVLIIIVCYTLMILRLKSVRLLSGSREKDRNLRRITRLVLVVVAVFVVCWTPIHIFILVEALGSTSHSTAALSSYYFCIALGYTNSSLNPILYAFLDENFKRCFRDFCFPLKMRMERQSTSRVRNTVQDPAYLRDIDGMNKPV
Sequence of Sodium-dependent serotonin transporter (P31645 whole entry): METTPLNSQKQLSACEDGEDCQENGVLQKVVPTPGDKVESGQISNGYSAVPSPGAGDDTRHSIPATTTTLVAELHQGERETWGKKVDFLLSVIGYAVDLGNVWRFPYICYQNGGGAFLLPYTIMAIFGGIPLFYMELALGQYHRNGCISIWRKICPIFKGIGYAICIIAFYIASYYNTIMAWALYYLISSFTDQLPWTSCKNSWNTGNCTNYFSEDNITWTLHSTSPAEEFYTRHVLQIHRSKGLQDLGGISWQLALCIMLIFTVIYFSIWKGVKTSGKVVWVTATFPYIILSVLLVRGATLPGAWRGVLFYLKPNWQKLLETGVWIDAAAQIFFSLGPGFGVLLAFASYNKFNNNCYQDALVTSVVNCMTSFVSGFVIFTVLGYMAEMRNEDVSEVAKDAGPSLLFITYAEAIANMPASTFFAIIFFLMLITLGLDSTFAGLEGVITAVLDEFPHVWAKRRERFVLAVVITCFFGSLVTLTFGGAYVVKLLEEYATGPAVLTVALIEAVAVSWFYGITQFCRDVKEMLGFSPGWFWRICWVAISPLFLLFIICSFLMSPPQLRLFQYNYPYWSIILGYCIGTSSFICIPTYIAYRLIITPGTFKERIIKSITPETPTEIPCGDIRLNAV

In the case of `Cc1cccc(C(C)c2cnc[nH]2)c1C` (centres undefined) [MEDETOMIDINE], the AC50 (usually the concentration at which the activity in the assay is half-maximal) in experiment [1] is more than 30 µM; in experiment [2], more than 30 µM; at Histamine H1 receptor, more than 30 µM; at Motilin receptor, more than 30 µM; in experiment [3], more than 30 µM; in experiment [4] it was 2.1 µM. In addition, the AC50 in experiment [5] is more than 30 µM; in experiment [6], more than 10 µM; in experiment [7], more than 30 µM; in experiment [8], more than 10 µM; at Melanocortin receptor 3, more than 30 µM.

For the compound `CN1CCN(CC/C=C2/c3ccccc3Sc3ccc(S(=O)(=O)N(C)C)cc32)CC1` [THIOTHIXENE], the AC50 in [1] is 11 µM; on Motilin receptor, more than 10 µM; in experiment [3] it was 2.8 µM; in [9], more than 30 µM; in experiment [5], 11.6 µM; in experiment [10] it was more than 10 µM. Further, the AC50 is more than 10 µM in [6], more than 30 µM in experiment [7], more than 10 µM in [8] and more than 30 µM on Melanocortin receptor 3.

With `CCc1c(Cl)c(O)c(Cl)c(O)c1C(=O)O[C@H]1[C@H](O)[C@H](OC)[C@H](OC/C2=C\C=C\C[C@H](O)/C(C)=C/[C@H](CC)[C@@H](O[C@@H]3OC(C)(C)[C@@H](OC(=O)C(C)C)[C@H](O)[C@@H]3O)/C(C)=C/C(C)=C/C[C@@H]([C@@H](C)O)OC2=O)O[C@@H]1C` [FIDAXOMICIN], the AC50 was more than 30 µM in [1]; more than 30 µM at Histamine H1 receptor; more than 10 µM on Motilin receptor; more than 30 µM in experiment [3]; more than 10 µM in experiment [4]; more than 10 µM in experiment [5]. Moreover, the AC50 in experiment [10] was more than 30 µM; in experiment [6], more than 10 µM; in experiment [7] it was 3.6 µM; in [8] it was more than 10 µM; at Melanocortin receptor 3, more than 30 µM.

`CNC(C)CCC=C(C)C` (centres undefined) [ISOMETHEPTENE]: the AC50 (on Motilin receptor; in experiment [10]; in experiment [7]; on Melanocortin receptor 3) was more than 30 µM throughout.

On to `O=C(O)C[C@H](O)C[C@H](O)/C=C/c1c(C2CC2)nc2ccccc2c1-c1ccc(F)cc1` [PITAVASTATIN], for which the AC50 was more than 30 µM in experiment [1]; more than 10 µM in experiment [2]; more than 30 µM at Histamine H1 receptor; more than 10 µM at Motilin receptor; more than 30 µM in [3]; more than 30 µM in experiment [9]. For the same compound, the half-maximal activity concentration (AC50) in experiment [5] is more than 10 µM; in experiment [10] it was more than 10 µM; in [6], more than 10 µM; in experiment [7], more than 10 µM; in experiment [8] it was more than 10 µM; on Melanocortin receptor 3, more than 30 µM.

As for `CO/N=C(\C(=O)N[C@@H]1C(=O)N2C(C(=O)O)=C(CSc3nnnn3C)CS[C@H]12)c1csc(N)n1` [CEFMENOXIME], the AC50 (in [1]; at Histamine H1 receptor; at Motilin receptor; in [9]; in experiment [10]; in [7]) was more than 30 µM in each case. Moreover, the AC50 at Melanocortin receptor 3 is more than 30 µM.

As for `CC(C)(C)c1cc(C(C)(C)C)c(NC(=O)c2c[nH]c3ccccc3c2=O)cc1O` [IVACAFTOR], the concentration at half-maximal activity (AC50) is more than 30 µM in [1]; more than 10 µM on Histamine H1 receptor; more than 10 µM at Motilin receptor; more than 30 µM in experiment [3]; more than 10 µM in experiment [4]; more than 10 µM in experiment [5]. The AC50 in [10] was more than 30 µM; in [6], more than 10 µM; in experiment [7] it was more than 30 µM; in experiment [8], more than 10 µM; at Melanocortin receptor 3, more than 30 µM.

For the compound `COc1ccccc1N1CCN(CCCNc2cc(=O)n(C)c(=O)n2C)CC1`, the AC50 in experiment [1] was 9.5 µM; at Histamine H1 receptor it was 4.3 µM; at Motilin receptor it was more than 30 µM; in experiment [3] it was more than 30 µM; in experiment [9] it was more than 30 µM; in experiment [5], more than 30 µM. The AC50 in experiment [10] was 9.5 µM; in experiment [6], more than 30 µM; in [7], more than 30 µM; in [8], more than 30 µM; at Melanocortin receptor 3, more than 30 µM.

Regarding `N#Cc1ccc([C@H]2CCc3cncn32)c(F)c1` [OSILODROSTAT], the AC50 is more than 10 µM in [1]; 10 µM at Histamine H1 receptor; more than 10 µM on Motilin receptor; more than 10 µM in experiment [3]; more than 10 µM in [4]; more than 10 µM in experiment [5]. The concentration at half-maximal activity (AC50) (in experiment [6]; in experiment [7]; in experiment [8]; on Melanocortin receptor 3) was more than 10 µM in each case.

Regarding `CC(C[N+](C)(C)C)OC(N)=O` (centres undefined) [BETHANECHOL], the AC50 in experiment [1] was more than 30 µM; at Histamine H1 receptor it was more than 10 µM; on Motilin receptor, more than 10 µM; in experiment [3], more than 30 µM; in experiment [4] it was more than 10 µM; in [5], more than 10 µM. Further, the AC50 (in experiment [10]; in [6]; in [7]; in [8]; at Melanocortin receptor 3) was more than 10 µM throughout.

On to `CCN(CC)C(=O)N[C@H]1C[C@@H]2c3cccc4[nH]cc(c34)C[C@H]2N(C)C1` [TERGURIDE], for which the AC50 is more than 30 µM in experiment [1]; 2.1 µM on Histamine H1 receptor; more than 30 µM on Motilin receptor; 0.21 µM in experiment [3]; more than 30 µM in experiment [9]; more than 30 µM in [5]. Also, the AC50 (in experiment [10]; in [6]; in experiment [7]; in experiment [8]; at Melanocortin receptor 3) was more than 30 µM each time.

Consider `CC(=O)O[C@H]1CC[C@@]2(C)C(=CC[C@@H]3[C@@H]2CC[C@]2(C)C(c4cccnc4)=CC[C@@H]32)C1` [ABIRATERONE ACETATE], for which the AC50 (in experiment [1]; on Histamine H1 receptor; on Motilin receptor; in [3]; in experiment [4]; in [9]) was more than 30 µM in each case. Further, the AC50 (in experiment [10]; in [6]; in [7]; on Melanocortin receptor 3) was more than 30 µM each time.
